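Protocol summary: plate cells (96-well), add compound at 5 concentrations, incubate 48 h, interpolate endpoints linearly. TGI: concentration producing complete growth inhibition.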 A value given as a limit tells only on which side of the number the result lay.

Test systems include HCT-15 colon; A498 renal; COLO 205 colon; NCI-H226 lung; 786-0 renal; UO-31 renal; HCT-116 colon; OVCAR-5 ovarian; A549 NSCLC; CCRF-CEM leukemia; MOLT-4 leukemia; HS 578T breast; MCF7 breast.
What all share (assay): NCI tumour cell line growth inhibition, 48 h

As for `Cc1cc(N(CCC#N)CCC#N)ccc1C=Nc1ccc(C(=O)NN2C(=O)/C(=C/c3ccc(N(CCC#N)CCC#N)cc3)N=C2c2cc([N+](=O)[O-])ccc2Cl)cc1`, the TGI in the test on HCT-15 colon, in the test on A498 renal, in the test on COLO 205 colon, with NCI-H226 lung, with 786-0 renal and in the test on UO-31 renal was above 100 µM throughout. Besides, the TGI in the test on HCT-116 colon, in the test with OVCAR-5 ovarian, with A549 NSCLC and in the test with CCRF-CEM leukemia was above 100 µM throughout.
As for `Cc1ccc(NC(=O)C(=O)Cc2cc[n+]([O-])cc2)cc1`, the TGI in the test with HCT-15 colon, in the test with A498 renal, in the test with COLO 205 colon, with NCI-H226 lung, with 786-0 renal and in the test on UO-31 renal was above 100 µM throughout. The TGI in the test on HCT-116 colon, in the test on OVCAR-5 ovarian, in the test with MOLT-4 leukemia, in the test on A549 NSCLC and in the test on CCRF-CEM leukemia was above 100 µM throughout.
For `Cc1cccc2c(=O)c3cccc([C@@H](C)C(=O)O)c3oc12`, the TGI with HCT-15 colon, with A498 renal, in the test on COLO 205 colon, with NCI-H226 lung, in the test with HS 578T breast and with 786-0 renal was above 100 µM each time. Also, the TGI in the test with UO-31 renal, in the test with HCT-116 colon, in the test with MOLT-4 leukemia, with A549 NSCLC and with CCRF-CEM leukemia was above 100 µM each time.
Turning to `C[N+](C)=c1nc(N2CCc3ccccc3C2)ss1`, the TGI in the test with HCT-15 colon, with A498 renal, with COLO 205 colon, in the test on NCI-H226 lung, in the test with 786-0 renal and in the test with UO-31 renal was above 100 µM each time. The TGI with HCT-116 colon, with MOLT-4 leukemia, in the test on A549 NSCLC and in the test on CCRF-CEM leukemia was above 100 µM throughout.
`CCC1CN2CCC3(c4ccccc4)CC(C(=O)OC)=CC1C23` (stereo unspecified): the TGI worked out at 31.9 µM with HCT-15 colon; 33.9 µM with A498 renal; 31.1 µM in the test with COLO 205 colon; 36.2 µM with NCI-H226 lung; 31.9 µM with 786-0 renal; 27.1 µM with UO-31 renal. Also, the TGI in the test with HCT-116 colon was 29.4 µM; in the test on OVCAR-5 ovarian, 20.6 µM; with MOLT-4 leukemia, above 100 µM; in the test with A549 NSCLC it was 35.8 µM; in the test on CCRF-CEM leukemia, above 100 µM.
As to `Cc1cc(Cl)ccc1C1OC(=O)c2c1ccc1ccccc21` (stereo unspecified), the TGI in the test with HCT-15 colon, with A498 renal, with COLO 205 colon, in the test with NCI-H226 lung, in the test with 786-0 renal and with UO-31 renal was above 100 µM throughout. For the same molecule, the TGI in the test on HCT-116 colon, with OVCAR-5 ovarian, in the test on MOLT-4 leukemia, in the test with A549 NSCLC and in the test with CCRF-CEM leukemia was above 100 µM throughout.
Take `CCOC(OC1=C(C#N)CCCC1)C(C)[Se]c1ccccc1` (stereo unspecified): the TGI in the test on HCT-15 colon is above 100 µM; in the test with A498 renal, above 100 µM; with COLO 205 colon it was above 100 µM; with NCI-H226 lung it was above 100 µM; with 786-0 renal, 31.4 µM; in the test on UO-31 renal, above 100 µM. Moreover, the TGI in the test with HCT-116 colon is above 100 µM; in the test on OVCAR-5 ovarian it was above 100 µM; with MOLT-4 leukemia it was 79.9 µM; in the test on A549 NSCLC, above 100 µM; in the test on CCRF-CEM leukemia, 65 µM.
Regarding `CCCCNC(=S)/N=C/c1c(O)c2ccccc2[nH]c1=O`, the TGI in the test with MCF7 breast, with HCT-15 colon, with A498 renal, with COLO 205 colon, with NCI-H226 lung and in the test on 786-0 renal was above 10 µM in each case. Moreover, the TGI with UO-31 renal, in the test on OVCAR-5 ovarian, in the test on MOLT-4 leukemia, in the test with A549 NSCLC and with CCRF-CEM leukemia was above 10 µM in each case.
`O=c1[nH]n(Cc2ccccc2Cl)c2ccccc12`: the TGI in the test on HCT-15 colon, in the test on A498 renal, in the test with COLO 205 colon, in the test with NCI-H226 lung, in the test with HS 578T breast and with 786-0 renal was above 100 µM each time. Moreover, the TGI with UO-31 renal, in the test on HCT-116 colon, in the test with OVCAR-5 ovarian, in the test with MOLT-4 leukemia, in the test with A549 NSCLC and in the test with CCRF-CEM leukemia was above 100 µM in each case.
On to `O=C1NC2(CCN(CCCC3(c4ccc(F)cc4)OCCO3)CC2)Oc2ccccc21`, for which the TGI is above 100 µM in the test with MCF7 breast; above 100 µM in the test with HCT-15 colon; 80.5 µM in the test with A498 renal; above 100 µM in the test on COLO 205 colon; above 100 µM in the test with NCI-H226 lung; above 100 µM with 786-0 renal. In addition, the TGI in the test with UO-31 renal, with HCT-116 colon, in the test on OVCAR-5 ovarian, in the test on MOLT-4 leukemia, in the test with A549 NSCLC and with CCRF-CEM leukemia was above 100 µM each time.
For the molecule `O=C(CC1C(=O)c2ccccc2C1=C1C(=O)c2ccccc2C1=O)c1ccccc1` (stereo unspecified), the TGI with HCT-15 colon, in the test on A498 renal, with COLO 205 colon, in the test on NCI-H226 lung, in the test on 786-0 renal and in the test with UO-31 renal was above 100 µM throughout. Moreover, the TGI in the test on OVCAR-5 ovarian, in the test on MOLT-4 leukemia, in the test with A549 NSCLC and with CCRF-CEM leukemia was above 100 µM each time.
`CCc1n[nH]c(=O)n1CCO`: the TGI with MCF7 breast, in the test with HCT-15 colon, in the test on A498 renal, in the test on COLO 205 colon, in the test on NCI-H226 lung and with 786-0 renal was above 100 µM throughout. Further, the TGI with UO-31 renal, in the test with HCT-116 colon, in the test on OVCAR-5 ovarian, in the test with MOLT-4 leukemia and in the test with A549 NSCLC was above 100 µM in each case.
Take `CC(CCCOC(c1ccccc1)(c1ccccc1)c1ccccc1)OC(=O)Nc1ccccc1` (stereo unspecified): the TGI in the test with HCT-15 colon amounted to 27.9 µM; with COLO 205 colon, 32.3 µM; with NCI-H226 lung it was 25.6 µM; in the test with 786-0 renal it was 29.9 µM; in the test with UO-31 renal, 23.7 µM; in the test with HCT-116 colon, 23 µM. In addition, the TGI with OVCAR-5 ovarian was 26.8 µM; with MOLT-4 leukemia, 24 µM; in the test with A549 NSCLC, 23.2 µM; with CCRF-CEM leukemia, 33.1 µM.

These data come from PubChem BioAssay (NCI).
